From patent publication US8084612B2, “Proline analogs as ligands for cannabinoid receptors” (Purdue Pharma L.P., priority 2008, dated 2011)

Experiments:
[1] = target: T1, CB1 receptor (Homo sapiens, UniProt P21554); assay: Competition binding assay, [3H]-CP55,940 displacement, CB1 CHO-K1 membranes
Protocol: (§1) CHO-K1 cells expressing CB1 or CB2 receptors (which were purchased from EuroScreen; Brussels, Belgium) were grown to confluency (20-40×10^6 cells) in 10 cm dishes. Cells were lysed by adding 10 mL/dish ice-cold hypotonic buffer (2.5 mM MgCl2, 50 mM HEPES, pH 7.4). Cell lysates were removed using a cell scraper and homogenized 30 seconds with a BioSpec Tissue Tearer™ (Racine, Wis.). Membranes were collected by centrifugation at 30,000 g for 15 min at 4° C. and pellets resuspended in hypotonic buffer to a final concentration of 1-3 mg/mL.
(§2) Membranes (CB1 or CB2 CHO-K1: 1 μg/well) were incubated at room temperature for 1 hour with 0.5 nM [^3H]-CP55,940 in 500 μL of assay buffer (5 mM MgCl2, 5 mg/mL BSA, 2.5 mM EDTA and 50 mM Tris-HCl, pH 7.4) in the presence of increasing concentrations of unlabeled competitors, e.g. WIN55, 212-2 (a CB1 receptor agonist available from Sigma-Aldrich, St. Louis, Mo.) or ligand of interest. The final concentration of DMSO was 5% . Reactions were terminated by rapid filtration using a 96-well filtration apparatus (Brandel, Gaithersburg, Md.) onto GE/C filter plates (PerkinElmer Life Sciences; Boston, Mass.) pretreated with polyethylenimine 0.5% (w/v). The plates were washed three times with 500 μL of ice-cold assay buffer. Filter plates were subsequently dried at 50° C. for 2-3 hours. Fifty microliters per well BetaScint 20 (PerkinElmer) scintillation cocktail was added and plates counted in a TopCount (PerkinElmer) for 1 min/well.
(§3) Data were analyzed using GraphPad PRISM™, v. […] The concentrations of unlabeled competitors that yield 50% displacement (IC50 values) were calculated from each curve by a non-linear regression analysis fined to a one-site model. In separate experiments, equilibrium dissociation constants (Kd values) were determined for each receptor. […] All Ki values are presented as mean±SEM of n determinations.

[2] = target: T1, CB1 receptor; assay: GTPγ[35S] functional binding assay, CB1 membranes; type: biochemical; design: Brussels, Belgium; host or cells: CHO-K1; Emax: reference not given here; details: GTPγ[35S] binding; for EC50: n.a. = no activity detected at the highest concentration tested, read-out: CB1 EC 50
[3] = target: CB2 receptor (Homo sapiens, UniProt P34972); assay: Competition binding assay, [3H]-CP55,940 displacement, CB2 CHO-K1 membranes
CB2 receptor, sequence (P34972 whole entry): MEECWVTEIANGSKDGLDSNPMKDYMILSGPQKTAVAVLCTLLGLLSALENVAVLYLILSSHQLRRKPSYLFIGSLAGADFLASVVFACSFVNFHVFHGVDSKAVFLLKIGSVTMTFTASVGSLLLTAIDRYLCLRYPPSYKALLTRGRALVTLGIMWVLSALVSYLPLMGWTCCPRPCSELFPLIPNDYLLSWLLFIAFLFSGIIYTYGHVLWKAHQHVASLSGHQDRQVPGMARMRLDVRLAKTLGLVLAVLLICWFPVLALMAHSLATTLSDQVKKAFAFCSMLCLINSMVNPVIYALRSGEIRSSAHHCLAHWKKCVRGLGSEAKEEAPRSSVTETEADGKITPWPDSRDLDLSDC
Protocol: as §1, §2, §3

T1 sequence (P21554 whole entry): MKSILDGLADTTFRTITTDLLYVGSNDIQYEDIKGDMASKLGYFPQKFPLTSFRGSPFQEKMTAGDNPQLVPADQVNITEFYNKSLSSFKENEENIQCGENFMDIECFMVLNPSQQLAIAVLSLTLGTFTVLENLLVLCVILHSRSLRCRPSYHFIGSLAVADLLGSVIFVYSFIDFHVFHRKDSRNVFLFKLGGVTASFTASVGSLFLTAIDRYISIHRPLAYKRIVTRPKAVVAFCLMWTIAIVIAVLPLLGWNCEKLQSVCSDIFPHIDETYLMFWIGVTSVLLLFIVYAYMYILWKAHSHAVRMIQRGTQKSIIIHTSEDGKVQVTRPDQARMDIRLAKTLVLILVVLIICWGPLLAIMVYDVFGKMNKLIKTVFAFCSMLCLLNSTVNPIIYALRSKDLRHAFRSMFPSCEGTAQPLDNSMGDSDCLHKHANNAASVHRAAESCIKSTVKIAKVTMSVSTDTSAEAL

| SMILES | Ki [1] [µM] | Emax [2] [%] | EC50 [2] [µM] | Ki [3] [µM] |
| --- | --- | --- | --- | --- |
| O=C(Nc1sc2c(c1C(=O)N1CCCCC1)CCCCC2)[C@H]1CCCN1C(=O)c1ccccc1 [EAA(a)] | 9.29 | – | – | – |
| O=C(Nc1sc2c(c1C(=O)N1CCCCC1)CCCCC2)[C@@H]1CCCN1S(=O)(=O)c1ccccc1 [AAA(b)] | 0.366 | 8 | – | – |
| O=C(Nc1ccsc1C(=O)N1CCCCC1)[C@H]1CCCN1S(=O)(=O)c1ccccc1 [DAA(a)] | 1.24 | – | – | – |
| O=C(Nc1sccc1C(=O)N1CCCCC1)[C@H]1CCCN1S(=O)(=O)c1ccccc1 [CAA(a)] | 1.89 | – | – | – |
| O=C(Nc1sc2c(c1C(=O)N1CCCCC1)CCCCC2)[C@H]1CCCN1S(=O)(=O)c1cccs1 [AAF(a)] | 0.0073 | 150 | 0.425 | 0.0045 |
| O=C(Nc1ccccc1C(=O)N1CCCCC1)[C@H]1CCCN1S(=O)(=O)c1ccccc1 [GAA(a)] | 1.13 | – | – | – |
| CS(=O)(=O)N1CCC[C@@H]1C(=O)Nc1sc2c(c1C(=O)N1CCCCC1)CCCCC2 [AAD(a)] | 2.19 | – | – | – |
| O=C(Nc1sc2c(c1C(=O)N1CCCCC1)CCCCC2)[C@H]1CCCN1S(=O)(=O)c1ccc(F)cc1 [AAB(a)] | 0.0435 | 68 | 1.91 | 0.0358 |
| Cc1ccc(S(=O)(=O)N2CCC[C@@H]2C(=O)Nc2sc3c(c2C(=O)N2CCCCC2)CCCCC3)cc1 [AAC(a)] | 0.261 | 8 | – | 0.154 |
| CCOC(=O)c1c(NC(=O)[C@H]2CCCN2S(=O)(=O)c2ccccc2)sc2c1CCCCC2 [ABE(a)] | 0.0151 | – | > 25 | 0.0115 |
| O=C(Nc1sc2c(c1C(=O)N1CCCCC1)CCCCC2)[C@H]1CCCN1S(=O)(=O)c1ccccc1 [AAA(a)] | 0.0047 | 80 | 0.702 | 0.0043 |
